Laboratory results published in ChEMBL document CHEMBL1151518, “Synthesis, evaluation and Tc-99m complexation of a hydrazinonicotinyl conjugate of a GP IIb/IIIa antagonist cyclic peptide for the detection of deep vein thrombosis” (Bioorg Med Chem Lett, 1997).

Biological target: Integrin alpha-IIb/beta-3 (Canis lupus familiaris)
Test: Inhibition of 125I-fibrinogen binding to alpha IIb beta-3 integrin as inhibition of activated platelets

| IC50 [nM] | Compound |
| --- | --- |
| 16 | CN1C(=O)[C@@H](CCCCNC(=O)c2ccc(NNC(=O)OC(C)(C)C)nc2)NC(=O)c2cccc(c2)CNC(=O)[C@H](CC(=O)O)NC(=O)CNC(=O)[C@@H]1CCCN=C(N)N |
| 6 | CC(C)[C@H]1NC(=O)c2cccc(c2)CNC(=O)[C@H](CC(=O)O)NC(=O)CNC(=O)[C@H](CCCN=C(N)N)N(C)C1=O |
| 9 | CC(C)[C@H]1NC(=O)c2cc(cc(NC(=O)CCCCCNC(=O)c3ccc(NNC(=O)OC(C)(C)C)nc3)c2)CNC(=O)[C@H](CC(=O)O)NC(=O)CNC(=O)[C@H](CCCN=C(N)N)N(C)C1=O |

The remaining lines, values behind:

| Compound | IC50 [nM] |
| --- | --- |
| CC(C)[C@H]1NC(=O)c2cc(cc(NC(=O)CCCCCNC(=O)c3ccc(NN)nc3)c2)CNC(=O)[C@H](CC(=O)O)NC(=O)CNC(=O)[C@H](CCCN=C(N)N)N(C)C1=O | 8 |
| CCOC(C)SCC(=O)NCC(CCC(=O)NCCCCCC(=O)Nc1cc2cc(c1)C(=O)N[C@H](C(C)C)C(=O)N(C)[C@@H](CCCN=C(N)N)C(=O)NCC(=O)N[C@@H](CC(=O)O)C(=O)NC2)NC(=O)CSC(C)OCC (stereo partly drawn) | 13 |
| CCOC(C)SCC(=O)NCC(CCC(=O)NCCCC[C@H]1NC(=O)c2cccc(c2)CNC(=O)[C@H](CC(=O)O)NC(=O)CNC(=O)[C@H](CCCN=C(N)N)N(C)C1=O)NC(=O)CSC(C)OCC (stereo partly drawn) | 11 |
| CC(C)[C@H]1NC(=O)c2cc(cc(NC(=O)CCCCCNC(=O)c3ccc(CN(CCSC(c4ccccc4)(c4ccccc4)c4ccccc4)CC(=O)NCCSC(c4ccccc4)(c4ccccc4)c4ccccc4)cc3)c2)CNC(=O)[C@H](CC(=O)O)NC(=O)CNC(=O)[C@H](CCCN=C(N)N)N(C)C1=O | > 1000 |
| CC(C)[C@H]1NC(=O)c2cc(cc(NC(=O)CCCCCN)c2)CNC(=O)[C@H](CC(=O)O)NC(=O)CNC(=O)[C@H](CCCN=C(N)N)N(C)C1=O | 5 |
